Active and inactive are the calls of the source. The rule behind the calls is not given here.

Test [1] deals with HDQ-P1. As to the kind of experiment: Induction of P53 expression in human HDQ-P1 cells assessed as enrichment ratio at 10 uM incubated for 72 hrs in presence of 50 uM G418 by Hoechst 33323 staining based fluorescence assay. In kind it is functional.
Test [2] deals with HDQ-P1. As to the kind of experiment: Induction of P53 expression in human HDQ-P1 cells assessed as enrichment ratio at 3 uM incubated for 72 hrs in presence of 50 uM G418 by Hoechst 33323 staining based fluorescence assay. In kind it is functional.
In test [3] the test system is HDQ-P1. As to the kind of experiment: Induction of P53 expression in human HDQ-P1 cells assessed as enrichment ratio at 3 uM incubated for 72 hrs in presence of gentamicin by automated electrophoresis western analysis. In kind it is functional.
Test [4] has as its system HDQ-P1. As to the kind of experiment: Effect on human HDQ-P1 cells assessed as increase in TP53 R213X mRNA level at 10 uM incubated for 72 hrs by RT-qPCR analysis. In kind it is functional, cell-based. On the technique in general: Real-time PCR tracks product formation cycle by cycle.
The subject of test [5] is HDQ-P1. Put plainly: Ratio of enrichment ratio of test compound at 10 uM to enrichment ratio of CDX5-1 at 30 uM in human HDQ-P1 cells by automated electrophoresis western analysis. In kind it is functional.
The subject of test [6] is HDQ-P1. As to the kind of experiment: Induction of P53 expression in human HDQ-P1 cells assessed as enrichment ratio at 10 uM incubated for 72 hrs in presence of 25 uM G418 by automated electrophoresis western analysis. In kind it is functional.
Test [7] deals with HDQ-P1. Put plainly: Effect on human HDQ-P1 cells assessed as increase in TP53 R213X mRNA level at 10 uM incubated for 72 hrs in presence of G418 by RT-qPCR analysis. In kind it is functional, cell-based.
For test [8], the system named is HDQ-P1. Put plainly: Induction of P53 expression in human HDQ-P1 cells assessed as enrichment ratio at 10 uM incubated for 72 hrs in presence of 50 uM G418 by automated electrophoresis western analysis. In kind it is functional.
The subject of test [9] is HDQ-P1. Put plainly: Cytotoxicity in human HDQ-P1 cells assessed as reduction in cell viability incubated for 72 hrs in presence of G418 by MTT assay. In kind it is functional, cell-based.
Test [10] deals with HDQ-P1. As to the kind of experiment: Cytotoxicity in human HDQ-P1 cells assessed as reduction in cell viability at 3 uM incubated for 72 hrs by MTT assay relative to control. In kind it is functional.
Test [11] has as its system HDQ-P1. As to the kind of experiment: Induction of P53 expression in human HDQ-P1 cells assessed as enrichment ratio at 3 uM incubated for 72 hrs in presence of 50 uM G418 by automated electrophoresis western analysis. In kind it is functional.
Test [12] deals with HDQ-P1. Put plainly: Induction of P53 expression in human HDQ-P1 cells assessed as enrichment ratio at 10 uM incubated for 72 hrs by automated electrophoresis western analysis. In kind it is functional.
Test [13] concerns HDQ-P1. As to the kind of experiment: Cytotoxicity in human HDQ-P1 cells assessed as reduction in cell viability at 1 uM incubated for 72 hrs by MTT assay. In kind it is functional, cell-based.
Test [14] concerns HDQ-P1. Put plainly: Induction of P53 expression in human HDQ-P1 cells assessed as enrichment ratio at 30 uM incubated for 72 hrs in presence of 25 uM G418 by automated electrophoresis western analysis. In kind it is functional.
Test [15] has as its system HDQ-P1. As to the kind of experiment: Induction of P53 expression in human HDQ-P1 cells assessed as enrichment ratio at 30 uM incubated for 72 hrs by automated electrophoresis western analysis. In kind it is functional.

Turning to `COc1ccc(NC(=O)c2cnc(Nc3ccc4[nH]ncc4c3)s2)cn1`, the figures for the Ratio with HDQ-P1 [1] and with HDQ-P1 [2] were 7.8 and 2.2, respectively.
On to `CSc1ccc(NC(=O)c2csc(Nc3cccc4[nH]ncc34)n2)cc1`, for which the Ratio amounted to 10.8 in the test on HDQ-P1 [3]; 3 with HDQ-P1 [5]; 8.8 in the test with HDQ-P1 [6]; 7.2 with HDQ-P1 [8]; 5.3 in the test on HDQ-P1 [11]; 0.1 in the test on HDQ-P1 [12]. The Ratio was determined as 20.1 with HDQ-P1 [1] and 8.2 in the test on HDQ-P1 [2]. Further, the result in the test on HDQ-P1 [4], in the test with HDQ-P1 [7] and in the test on HDQ-P1 [13] was inactive. For the same compound, the result in the test on HDQ-P1 [9] was Active. In addition, the Activity in the test with HDQ-P1 [10] came to 60%.
With `O=C(Nc1ccc2[nH]ncc2c1)c1csc(Nc2ccc3[nH]ccc3c2)n1`, the Ratio is 8 in the test on HDQ-P1 [1] and 1.4 in the test on HDQ-P1 [2].
For the compound `O=C1NC(=O)c2cc(NCc3c(Cl)cccc3Cl)ccc21`, the Ratio was 2.8 in the test on HDQ-P1 [6], 0.1 in the test on HDQ-P1 [12], 8.3 in the test on HDQ-P1 [14] and 0.1 in the test on HDQ-P1 [15].
`O=C(Nc1ccc(F)cc1)c1csc(Nc2cccc3[nH]ncc23)n1`: the outcome in the test with HDQ-P1 [4], in the test on HDQ-P1 [7] and in the test with HDQ-P1 [13] was inactive. Further, the Ratio stood at 3 in the test on HDQ-P1 [5]; 25.7 in the test with HDQ-P1 [6]; 23.3 in the test with HDQ-P1 [8]; 13.1 in the test with HDQ-P1 [11]; 0.3 in the test with HDQ-P1 [12]; 23.3 in the test on HDQ-P1 [1]. In the test on HDQ-P1 [2], the Ratio worked out at 13.1. Moreover, the result in the test with HDQ-P1 [9] was Active. In addition, the Activity in the test on HDQ-P1 [10] stood at 42%.
Consider `O=C(Nc1ccc2c(c1)OCCO2)c1csc(Nc2cccc3[nH]ncc23)n1`, for which the Ratio in the test on HDQ-P1 [8] was determined as 15.8; with HDQ-P1 [11], 3.4; in the test with HDQ-P1 [1] it was 15.8; with HDQ-P1 [2] it was 3.4.
Regarding `COc1cc(NC(=O)c2csc(Nc3cccc4[nH]ncc34)n2)cc(OC)c1OC`, the Ratio in the test with HDQ-P1 [8] is 20.1; with HDQ-P1 [11], 8.2; in the test with HDQ-P1 [1], 7.2; in the test with HDQ-P1 [2], 5.3.
Turning to `COc1ccc(NC(=O)c2csc(Nc3cccc4[nH]ncc34)n2)cn1`, the figures for the Ratio in the test with HDQ-P1 [1] and with HDQ-P1 [2] were 27.2 and 1.4, respectively.
For the compound `O=C(Nc1ccc2c(c1)OCO2)c1csc(Nc2ccc3ncccc3c2)n1`, the Ratio with HDQ-P1 [8] stood at 10.7; in the test with HDQ-P1 [11], 3.6; in the test on HDQ-P1 [1] it was 10.7; in the test with HDQ-P1 [2], 3.5.
As for `O=C(Nc1ccc2c(c1)OCCO2)c1csc(Nc2ccc(=O)[nH]c2)n1`, the Ratio in the test with HDQ-P1 [8] is listed as 2.3; in the test with HDQ-P1 [11], 2.4; in the test on HDQ-P1 [1] it was 7; with HDQ-P1 [2], 3.8.
With `O=C(Nc1ccc2c(c1)OCCO2)c1csc(Nc2ccc3ncccc3c2)n1`, the figures for the Ratio with HDQ-P1 [1] and with HDQ-P1 [2] were 8.7 and 1.6, respectively.
The like results for `O=C(Nc1ccc2c(c1)OCO2)c1csc(Nc2ccc3[nH]ncc3c2)n1` were, in that order, 5.4 and 1.2.
On to `O=C(Nc1ccc2[nH]ccc2c1)c1csc(Nc2ccc3[nH]ncc3c2)n1`, for which the Ratio came to 23 with HDQ-P1 [1] and 1.3 in the test with HDQ-P1 [2].
Turning to `COc1ccc(NC(=O)c2csc(Nc3cccc4[nH]ncc34)n2)cc1`, the Ratio in the test on HDQ-P1 [1] is reported as 5.9; in the test with HDQ-P1 [2], 1.6.
The matching figures for `O=C(Nc1ccccc1)c1csc(Nc2ccc3[nH]ncc3c2)n1`: 11.2 and 2.5.
The like results for `CSc1ccc(NC(=O)c2cnc(Nc3ccc4[nH]ncc4c3)s2)cc1` were, in that order, 4.7 and 1.6.
Turning to `O=C(Nc1ccc2c(c1)OCO2)c1cnc(Nc2ccc3[nH]ncc3c2)s1`, the results for the Ratio with HDQ-P1 [1] and in the test with HDQ-P1 [2] were 19.2 and 1.2, respectively.

These data come from ChEMBL document CHEMBL4396882, “2-Aminothiazole-4-carboxamides Enhance Readthrough of Premature Termination Codons by Aminoglycosides” (2019).
